Results taken from patent US20250312378A1, “COMPOSITION COMPRISING ANTI-FOLIC ACID AGENT FOR DIFFERENTIATION OF MESENCHYMAL STEM CELL INTO CARTILAGE” (EWHA UNIVERSITY-INDUSTRY COLLABORATION FOUNDATION, priority 2021, published 2025).

Assays:
COL II [1] = experiment: COL II mRNA expression by qPCR in TMSCs in PEG-PA 3D matrix; assay type: cell-based, Human; details: 0.1 μM; for COL II mRNA level compared to control system, day 14: day 14, vs control system containing no antifolate; for COL II expression level compared to control system (day not given): vs control system, time point not given
Excerpt: (§1) Based on the screening results obtained in Example 3, dapsone (1), pralatrexate (4), and trimethoprim (7) were selected as antifolate candidates.
(§2) Human TMSCs used as stem cells were donated from Ewha Womans University Mokdong Hospital (Seoul, Korea). The cells were isolated from a donor after tonsillectomy in compliance with the ethical guidelines of the University. DMEM (Corning, USA) containing 10.0% (v/v) fetal bovine serum (FBS, Corning, USA), 1.0% (v/v) penicillin/streptomycin (PS, Corning, USA) and 1.0% (v/v) […] (AA, Corning, USA) was used as a growth medium, and the isolated human TMSCs were cultured using the growth medium in traditional polystyrene culture dishes at 37° C. under 5% CO2 atmosphere. Then, the stem cells (passage 7, 0.5×10^6 cells/well) were mixed with the aqueous PEG-PA solution (10.0 wt % in growth medium) containing an antifolate or KGN at 20° C. A system containing no antifolate or KGN was used as a control. The TMSC-suspended solution was injected into a 24-well culture plate (0.2 ml/well) at 37° C. to form a hydrogel matrix. The medium was replaced every 3 days during a 3D culture period of 21 days, and each experiment was performed in triplicate.
(§3) Chondrogenic differentiation of TMSCs was investigated at the mRNA and protein levels of chondrogenic biomarkers such as COL II, SOX 9, and ACAN. Gene expression levels were determined compared to that of a control system containing no antifolate using equal amounts of cDNA. COL I, an osteogenic biomarker, was also used to determine whether osteogenic differentiation occurred when an antifolate was used.
(§4) Specifically, after 0, 14, and 21 days of 3D culture, mRNA was extracted from the cells in the thermogel by using a TRIZOL™ reagent (Invitrogen, USA) according to the manufacturer's protocol, and the mRNA concentration was assayed by a Nano Drop 2000 spectrometer (Thermo Scientific, USA). Equal amounts of cDNA were used in qPCR to determine gene expression levels compared to that of the control system containing no antifolate. Then, total cDNA was synthesized using a ReverTra Ace® qPCR RT kit (Toyobo, Japan), and mRNA expression levels were measured using a CFX96™ real-time RT-PCR system (Bio-Rad, USA) and an iQ™ SYBR® Green Supermix solution (Bio-Rad, USA). The relative expression levels of target genes were calculated as 2^−ΔΔCt by the following calculation equation: ΔΔCt=(gene A−GAPDH)t−(gene A−GAPDH)0. Here, the subscript 0 refers to data on day 0 (3 hours). The primer sequences used for amplification are shown in Table 1 below, and each test value was determined as the mean value of triplicate determinations.

COL II [2] = experiment: Screening of COL II mRNA expression under 3D culture conditions (FIG. 4B); assay type: cell-based, Human; details: 0.1 μM
Procedure: Various antifolates were screened to evaluate their effects on cell proliferation and viability and their chondrogenic potential. The antifolates used were dapsone (1), methotrexate (2), pemetrexed (3), pralatrexate (4), proguanil (5), pyrimethamine (6), and trimethoprim (7). Stem cells loaded in a PEG-PA thermogel scaffold containing each antifolate or KGN were cultured in a DMEM growth medium containing FBS (10.0% v/v) for 21 days. A control experiment was performed under the same conditions, except that no antifolate was added.
Expression of chondrogenic biomarkers was investigated in the presence of antifolates. The expression of COL II, the most widely used biomarker for chondrogenic differentiation of stem cells, was investigated at the mRNA level (FIG. 4B).

ACAN [3] = experiment: ACAN mRNA expression by qPCR in TMSCs in PEG-PA 3D matrix; assay type: cell-based, Human; details: 0.1 μM; for ACAN expression level on day 14 compared to control system: day 14, vs control system containing no antifolate; for ACAN mRNA level on day 14 compared to day 0: day 14 vs day 0 (3 hours after start of culture)
Excerpt: as §1, §2, §3
as §4, with “[…],” for “after 0, 14, and 21 days of 3D culture,”

[4] = In vitro drug release from PEG-PA thermogel into PBS (HPLC); assay type: physicochemical; details: from PEG-PA thermogel (10.0 wt %) into PBS, 37° C.
Procedure: The drug release profile of the thermogel was determined in vitro. […] The temperature of the polymer solution containing the drug was increased to 37° C. to cause a sol-gel transition. After 30 minutes, phosphate-buffered saline (PBS) (1.2 mL, 37° C.) was added thereto, and the mixture was placed in a shaking thermostatic bath with 40 strokes/min at 37° C. PBS was replaced at specific sampling intervals. The drug released into the medium, PBS, was analyzed by a high-performance liquid chromatography system (HPLC; Waters 1525B, USA) equipped with a photodiode detector (Waters 2998, USA) and a Jupiter@5 μm C18 300A LC column (Phenomenex, USA). As a mobile phase, a mixed solvent of methanol/water (40/60 v/v) containing trifluoroacetic acid (0.1%) was used for dapsone, pralatrexate and trimethoprim, and a mixed solvent of acetonitrile/water (35/65 v/v) containing formic acid (0.1%) was used for KGN. The flow rate was set at 1.0 ml/min. The amount of drug released was analyzed at 260 nm for dapsone, 307 nm for pralatrexate, 287 nm for trimethoprim, and 274 nm for KGN, and was determined as the mean value of triplicate determinations.

RUNX1 = RUNX1 immunofluorescence in TMSCs; assay type: cell-based, Human; details: serum-free growth medium after overnight starvation
Procedure: For immunofluorescence assay, stem cells were starved overnight and then treated with each antifolate or KGN in serum-free growth medium. Each cell was treated with bovine serum albumin (1.0% w/v in PBS), and then treated with anti-CBFβ primary antibody (Abcam, USA) and anti-RUNX1 primary antibody (Santa Cruz Biotechnology, USA) and incubated. The cells were treated with anti-rabbit IgG H&L secondary antibodies (Abcam, USA) and anti-mouse IgG H&L secondary antibodies (Abcam, USA) against CBFβ and RUNX1, respectively. The cell nuclei were stained with DAPI (Molecular probes, USA), and each image was obtained using an Olympus IX71 fluorescence microscope and Olympus DP2-BSW software.

COL II [5] = experiment: COL II protein expression by immunofluorescence assay; assay type: cell-based, Human; details: 0.1 μM, 14 days 3D culture
Procedure: (§5) Protein expression for COL II, SOX 9, ACAN and COL I was investigated using immunofluorescence assay for stem cells cultured for 14 days. Specifically, TMSCs, which were 3D cultured with antifolates or KGN for 14 days and then encapsulated in thermogel scaffolds, were fixed with 4.0% paraformaldehyde (PFA) for 12 hours and quickly frozen at −70° C. Then, the thermogels were cryosectioned to a thickness of 10 μm using CM1850 (Leica, Germany). All the samples were treated with Triton (0.25% v/v in PBS), and then blocked with bovine serum albumin (1.0% w/v in PBS), and treated with anti-COL II, anti-SOX 9, anti-ACAN, and anti-COL I primary antibodies. Next, the samples were washed with PBS and treated with the following secondary antibodies: goat anti-mouse IgG H&L Alexa Fluor®594 for COL II and ACAN, and goat anti-rabbit IgG H&L Alexa Fluor®594 for SOX 9 and COL I. All the antibodies were purchased from Abcam (USA) and tested according to the manufacturer's protocol. In addition, each sample was stained for nuclei and F-actin with DAPI (Molecular probes, USA) and phalloidin (PHD) (Abcam, USA), respectively. Images were obtained using an Olympus IX71 fluorescence microscope and Olympus DP2-BSW software.
(§6) For immunofluorescence assay, the cell nucleus and actin were stained blue and green with DAPI and PHD, respectively, and the antibodies for each protein were stained red.

SOX 9 [6] = experiment: SOX 9 protein expression by immunofluorescence assay; assay type: cell-based, Human; details: 0.1 μM, 14 days 3D culture
Procedure: as §5, §6

ACAN [7] = experiment: ACAN protein expression by immunofluorescence assay; assay type: cell-based, Human; details: 0.1 μM, 14 days 3D culture
Procedure: as §5, §6

SOX 9 [8] = experiment: SOX 9 mRNA expression by qPCR in TMSCs in PEG-PA 3D matrix; assay type: cell-based, Human; details: 0.1 μM
Excerpt: as §1, §2, §3
as §4, with “[…],” for “after 0, 14, and 21 days of 3D culture,”

CBFβ = experiment: Nuclear translocation of CBFβ in TMSCs by Western blot; assay type: cell-based, Human; details: serum-free growth medium after overnight starvation
Excerpt: Filamin A is an actin-binding protein that regulates the cytoskeletal network involved in chondrogenic differentiation. When KGN binds to filamin A in the cytosol, the interaction between filamin A and CBFβ is broken, and when the dissociated CBFβ enters the nucleus, CBFβ regulates RUNX1, thereby promoting differentiation of MSCs into chondrocytes. Whether the antifolate can be involved in this mechanism and regulate chondrogenic differentiation-related factors was examined by Western blot analysis and immunofluorescence assay.
Specifically, for Western blot analysis, stem cells (TMSCs) were starved overnight and then treated with each antifolate or KGN in serum-free growth medium. Then, cytosolic and nuclear proteins of the TMSCs were obtained using a nuclear/cytosolic fractionation kit (Cell Biolabs Inc., USA) and total protein was obtained using a cell extraction buffer (Invitrogen, USA) containing a protease inhibitor and phenyl methane sulfonyl fluoride (1.0 mM). Each of the cytosolic and nuclear proteins was loaded, detected with anti-CBFβ primary antibody (Cell Signaling Technology, USA), and then treated with anti-rabbit IgG HRP-conjugated secondary antibody (Cell Signaling Technology, USA) and incubated. Then, the proteins were visualized with an enhanced chemiluminescence substrate (Bio-rad, USA) using an Amersham Imager 600 (GE, UK).

SMILES | COL II mRNA level compared to control system, day 14 (COL II [1]) | COL II expression level compared to control system (day not given) (COL II [1]) | mRNA expression level of COL II compared to control (COL II [2]) | ACAN expression level on day 14 compared to control system (ACAN [3]) | ACAN mRNA level on day 14 compared to day 0 (ACAN [3]) | ACAN mRNA level relative to control system, day 20 (ACAN [3]; day 20) | drug released over 24 hours [4] | fluorescence intensity of RUNX1 in the nucleus compared to control (RUNX1) | fluorescence intensity of COL II protein (COL II [5]) | fluorescence intensity of SOX 9 protein (SOX 9 [6]) | fluorescence intensity of ACAN protein (ACAN [7]) | SOX 9 expression change (SOX 9 [8]) | SOX 9 mRNA level, rank among systems (SOX 9 [8]) | SOX 9 mRNA expression level compared to control system, day 14 (SOX 9 [8]) | COL II expression, rank among systems (COL II [1]) | COL II expression relative to KGN (COL II [1]; day 14) | COL II expression on day 14 compared to day 0 (COL II [1]; day 14 vs day 0 (3 hours after start of culture)) | nuclear translocation of CBFβ (nuclear versus cytosolic band intensity, FIG. 8B) (CBFβ)
O=C(O)c1ccccc1C(=O)Nc1ccc(-c2ccccc2)cc1 [KGN, kartogenin] | 1.7 fold | 2.1 fold | 1.5 fold | 1.7 fold | 5 fold | approximately 3.7 times |  |  |  |  |  |  |  |  |  |  |  | 
Nc1ccc(S(=O)(=O)c2ccc(N)cc2)cc1 [dapsone] |  | 2.6 fold | 1.8 fold |  |  |  | 70% |  |  |  |  |  |  |  |  |  |  | 
C#CCC(Cc1cnc2nc(N)nc(N)c2n1)c1ccc(C(=O)N[C@@H](CCC(=O)O)C(=O)O)cc1 (stereo partly shown) [pralatrexate] | 3.9 fold | 3.5 fold | 2.1 fold | 4.3 fold | 12 fold |  | 79% | increased | highest | highest | highest | significantly (p<0.01) increased | highest | 4.2 fold | highest | 2 fold | 10 fold | increased
COc1cc(Cc2cnc(N)nc2N)cc(OC)c1OC [trimethoprim] | 2.1 fold | 2.1 fold | 1.5 fold | 2.2 fold | 6 fold |  | 79% |  |  |  |  | significantly (p<0.01) increased |  | 2.9 fold |  |  |  | 
